# From ChEMBL document CHEMBL1142495, “Novel D3 selective dopaminergics incorporating enyne units as nonaromatic catechol bioisosteres: synthesis, bioactivity, and mutagenesis studies” (J Med Chem, 2008)
# Columns and labels:
# D(4) dopamine receptor = target: T1, D(4) dopamine receptor (Homo sapiens, UniProt P21917); test: Displacement of [3H]spiperone from human D4 receptor expressed in CHO cells; assay type: cell-based
# T1 sequence (P21917 whole entry): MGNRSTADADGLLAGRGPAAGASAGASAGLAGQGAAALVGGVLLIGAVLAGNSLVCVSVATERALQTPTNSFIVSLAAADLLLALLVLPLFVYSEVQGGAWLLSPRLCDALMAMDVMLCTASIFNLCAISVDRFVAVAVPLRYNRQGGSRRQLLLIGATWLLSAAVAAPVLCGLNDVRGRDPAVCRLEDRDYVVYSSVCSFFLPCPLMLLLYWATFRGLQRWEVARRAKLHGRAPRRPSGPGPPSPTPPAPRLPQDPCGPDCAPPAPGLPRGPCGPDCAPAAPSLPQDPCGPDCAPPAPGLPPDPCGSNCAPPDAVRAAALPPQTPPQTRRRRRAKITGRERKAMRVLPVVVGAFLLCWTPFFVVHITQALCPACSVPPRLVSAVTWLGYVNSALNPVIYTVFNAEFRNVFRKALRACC
# D(1A) dopamine receptor = D(1A) dopamine receptor (Sus scrofa, UniProt P50130); test: Displacement of [3H]SCH23390 from D1 receptor in pig striatal membrane; assay type: cell membranes, Striatum
# D(2) dopamine receptor [1] = target: T2, D(2) dopamine receptor (Homo sapiens, UniProt P14416); test: Displacement of [3H]spiperone from human D2short receptor expressed in CHO cells; assay type: cell-based
# D(2) dopamine receptor [2] = target: T2, D(2) dopamine receptor; test: Displacement of [3H]spiperone from human D2long receptor expressed in CHO cells; assay type: cell-based
# [3] = Displacement of [3H]ketanserin from 5HT2 receptor in pig cerebral cortex homogenate
# [4] = Displacement of [3H]prazosin from adrenergic alpha1 receptor in pig cerebral cortex homogenate
# [5] = Displacement of [3H]WAY100635 from 5HT1A receptor in pig cerebral cortex homogenate
# D(3) dopamine receptor [6] = target: T3, D(3) dopamine receptor (Homo sapiens, UniProt P35462); test: biochemical
# Description: Displacement of [3H]spiperone from human D3 receptor expressed in CHO cells
# D(3) dopamine receptor [7] = target: D(3) dopamine receptor (Homo sapiens, UniProt P35462, D110E); test: biochemical
# Description: Displacement of [3H]spiperone from human D3 D3.32E mutant receptor expressed in human HEK293 cells
# D(3) dopamine receptor [8] = target: T3, D(3) dopamine receptor
# Description: Intrinsic activity at human D3 receptor expressed in CHO dhfr- cells by [3H]thymidine incorporation assay
# D(3) dopamine receptor [9] = target: T3, D(3) dopamine receptor; test: biochemical; remark: listed apart in the source
# Description: Displacement of [3H]spiperone from human wild type D3 receptor expressed in human HEK293 cells
# D(3) dopamine receptor [10] = target: T3, D(3) dopamine receptor; remark: listed apart in the source
# Description: Intrinsic activity at human D3 receptor expressed in CHO dhfr- cells assessed as inhibition of forskolin-induced cAMP release
# D(3) dopamine receptor [11] = target: D(3) dopamine receptor (Homo sapiens, UniProt P35462, F345W); test: biochemical
# Sequence of D(3) dopamine receptor (Homo sapiens, UniProt P35462, F345W) (P35462 as listed by the source F345W): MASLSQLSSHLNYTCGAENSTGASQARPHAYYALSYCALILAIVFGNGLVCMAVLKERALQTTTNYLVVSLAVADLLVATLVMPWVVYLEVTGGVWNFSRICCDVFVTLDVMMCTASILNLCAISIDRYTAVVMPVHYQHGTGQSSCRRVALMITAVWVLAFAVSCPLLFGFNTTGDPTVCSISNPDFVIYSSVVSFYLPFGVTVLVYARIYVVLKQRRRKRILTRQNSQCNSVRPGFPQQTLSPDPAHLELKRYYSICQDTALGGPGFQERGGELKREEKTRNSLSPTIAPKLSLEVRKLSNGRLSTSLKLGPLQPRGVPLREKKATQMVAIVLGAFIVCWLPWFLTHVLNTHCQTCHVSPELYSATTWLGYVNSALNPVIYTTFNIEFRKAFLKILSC
# Description: Displacement of [3H]spiperone from human D3 F6.51W mutant receptor expressed in human HEK293 cells
# Sequence of D(1A) dopamine receptor (P50130 whole entry): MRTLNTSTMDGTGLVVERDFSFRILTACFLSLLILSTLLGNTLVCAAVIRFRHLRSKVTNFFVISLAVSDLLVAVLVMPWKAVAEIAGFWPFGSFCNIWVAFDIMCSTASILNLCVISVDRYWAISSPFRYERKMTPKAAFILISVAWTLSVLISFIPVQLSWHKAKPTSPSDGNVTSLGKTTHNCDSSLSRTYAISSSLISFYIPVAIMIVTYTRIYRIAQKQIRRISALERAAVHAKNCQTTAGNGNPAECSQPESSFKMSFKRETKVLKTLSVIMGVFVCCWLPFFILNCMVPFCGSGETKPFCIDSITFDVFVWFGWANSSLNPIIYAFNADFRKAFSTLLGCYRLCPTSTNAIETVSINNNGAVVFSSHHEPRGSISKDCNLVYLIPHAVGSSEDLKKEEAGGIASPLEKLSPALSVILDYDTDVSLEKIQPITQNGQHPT
# T2 sequence (P14416 whole entry): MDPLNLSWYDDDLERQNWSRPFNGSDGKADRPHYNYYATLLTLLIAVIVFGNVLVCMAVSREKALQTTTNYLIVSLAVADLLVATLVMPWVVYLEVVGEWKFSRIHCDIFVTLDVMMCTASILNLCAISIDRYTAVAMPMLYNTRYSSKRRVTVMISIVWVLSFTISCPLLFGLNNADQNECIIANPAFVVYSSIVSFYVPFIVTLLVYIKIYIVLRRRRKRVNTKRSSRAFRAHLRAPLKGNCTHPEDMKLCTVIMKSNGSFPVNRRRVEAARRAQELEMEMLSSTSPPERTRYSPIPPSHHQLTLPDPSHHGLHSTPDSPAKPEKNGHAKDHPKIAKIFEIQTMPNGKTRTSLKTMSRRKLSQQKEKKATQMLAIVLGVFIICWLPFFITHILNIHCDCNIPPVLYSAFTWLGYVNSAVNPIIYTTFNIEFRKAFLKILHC
# T3 sequence (P35462 whole entry): as the sequence (P35462 as listed by the source F345W) above, with S9G, W345F counted along it
# Sequence of D(3) dopamine receptor (Homo sapiens, UniProt P35462, D110E) (P35462 as listed by the source D110E): as the sequence (P35462 as listed by the source F345W) above, with D110E, W345F counted along it
Ki (D(4) dopamine receptor) [nM],Ki (D(1A) dopamine receptor) [nM],Ki (D(2) dopamine receptor [1]) [nM],Ki (D(2) dopamine receptor [2]) [nM],Ki [3] [nM],Ki [4] [nM],Ki [5] [nM],Ki (D(3) dopamine receptor [6]) [nM],SMILES,Ki (D(3) dopamine receptor [7]) [nM],EC50 (D(3) dopamine receptor [8]) [nM],Ki (D(3) dopamine receptor [9]) [nM],EC50 (D(3) dopamine receptor [10]) [nM],Ki (D(3) dopamine receptor [11]) [nM]
1400,6800,8800,9700,790,2400,2800,950,CCCN(CCC)CCCCNC(=O)c1ccc(-c2ccccc2)cc1,–,–,–,–,–
4.3,2900,–,–,460,510,230,–,C#CC1=CCC(N(CCC)CCCCNC(=O)c2ccc(-c3ccccc3)cc2)CC1 (configuration not stated),–,–,–,–,–
3100,13000,4700,5500,8300,4600,5800,300,CCCN(CCCCNC(=O)c1ccc(-c2ccccc2)cc1)C1CC=C(C#Cc2ccccc2)CC1 (configuration not stated),–,–,–,–,–
1100,1700,180,210,5700,900,5900,150,CCCN(CCCCn1cc(-c2ccc(-c3ccccc3)cc2)nn1)C1CC=C(C#Cc2ccccc2)CC1 (configuration not stated),–,–,–,–,–
670,4600,6300,4700,890,1100,1200,140,CCCN(CCCCNC(=O)c1ccc(-c2ccccc2)cc1)C1CCCCC1,–,–,–,–,–
100,> 100000,2100,4100,15000,8700,1800,280,CC#CC1=CCC(N(CCC)CCCCn2cc(C)nn2)CC1 (configuration not stated),–,–,–,–,–
–,–,–,–,–,–,–,–,C#CC1=CCC(N(CCC)CCC)CC1 (configuration not stated),> 10000,4.4,190,7.7,5700
6100,7300,> 100000,21000,860,2500,9500,11000,CCCNCCCCNC(=O)c1ccc(-c2ccccc2)cc1,–,–,–,–,–
1800,5800,670,690,8300,1900,6900,13,CCCN(CCCCn1cc(-c2ccc(-c3ccccc3)cc2)nn1)C1CC=C(C#C[Si](C)(C)C)CC1 (configuration not stated),–,–,–,–,–
69,3800,360,220,1400,2200,660,4.4,CCCN(CCCCNC(=O)c1ccc(-c2ccccc2)cc1)C1CC=C(C#C[Si](C)(C)C)CC1 (configuration not stated),–,–,–,–,–

SMILES,Ki (D(4) dopamine receptor) [nM],Ki (D(1A) dopamine receptor) [nM],Ki (D(2) dopamine receptor [1]) [nM],Ki (D(2) dopamine receptor [2]) [nM],Ki [3] [nM],Ki [4] [nM],Ki [5] [nM],Ki (D(3) dopamine receptor [6]) [nM],Ki (D(3) dopamine receptor [7]) [nM],EC50 (D(3) dopamine receptor [8]) [nM],Ki (D(3) dopamine receptor [9]) [nM],EC50 (D(3) dopamine receptor [10]) [nM],Ki (D(3) dopamine receptor [11]) [nM]
C#CC1=CCC(N(CCC)CCCCn2cc(-c3ccc(-c4ccccc4)cc3)nn2)CC1 (configuration not stated),190,9500,170,610,2700,4400,2500,1.3,1500,2.6,2.5,3.1,33
